According to US11242327B2, “Analgesic compounds” (RECURIUM IP HOLDINGS, LLC, priority 2017, dated 2022):

Assays:
male Sprague-Dawley rats [1] = assay: Formalin Paw Test, rat, oral; format: in vivo; details: 30 mg/kg; for Early Phase, seconds of paw licking: early/acute phase (0-10 minutes); for Late Phase, seconds of paw licking: late/tonic phase (10-35 minutes)
Outline: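 Paw licking recorded every 5 min for 35 min after formalin injection, in groups of 8 non-fasted males: Sprague-Dawley rats (200–225 g) dosed orally or ICR mice (23±3 g) dosed intraperitoneally. Scores are licking-time bins: A <70 s, B 70–165 s, C >165 s.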

male Sprague-Dawley rats [2] = assay: Spinal Nerve Ligation (SNL) Neuropathic Pain Test; format: in vivo; details: rat, oral; for 50% response threshold, 1 h: 1 h after administration; for 50% response threshold, 2 h: 2 h after administration; for 50% response threshold, 4 h: 4 h after administration
Experimental: Neuropathy was induced in non-fasted male Sprague-Dawley rats weighing 75-100 g by surgically ligating the 4th and 5th lumbar spinal nerves (L4 and L5), a procedure also known as spinal nerve ligation (SNL). Animals were placed in individual acrylic chambers on a metal mesh surface and allowed to acclimate to their surroundings for a minimum of 15 minutes before testing. Mechanical sensitivity was assessed using 8 Semmes-Weinstein filaments (Stoelting©; Wood Dale, Ill., USA) with varying stiffness (0.4, 0.6, 1.0, 2.0, 4.0, 6.0, 8.0, and 15 g) according to an up-down method to determine 50% response thresholds. Each filament was presented perpendicular to the plantar surface with sufficient force to cause slight buckling against the paw and held for approximately 6 seconds or until a positive response is noted (paw sharply withdrawn). Testing was initiated with the 2.0 g filament. In the absence of a paw withdrawal response, the next stronger stimulus was presented. In the event of paw withdrawal, the next weaker stimulus was used. This process was repeated until 4 responses after the initial change in response (no response to positive response or positive response to no response) were obtained. […] The 50% response threshold was calculated using the formula: 50% response threshold (g)=(10^(Xf+kδ))/10,000;
Xf=value (in log units) of the final von Frey filament used;
k=tabular value for the pattern of positive/negative responses (See Chaplan, et al. “Quantitative Assessment of Tactile Allodynia in the Rat Paw” J. Neurosci. Meth. 53.1 (1994): 56-63);
[…] =mean difference (in log units) between stimuli.
The mean and standard error of the mean (SEM) were determined for each paw for each treatment group at each time point. Thresholds were determined prior to surgery and again 14 days later. After 14 days, test or control compounds were administered and thresholds were again determined 1, 2, and 4 hours after compound administration. Median response thresholds in compound-treated animals were compared to those in vehicle treated animals to determine anti-allodynic efficacy of test and control compounds. Test compounds were administered orally at concentrations of 10, 30 or 100 mg/kg and gabapentin was administered orally at a concentration of 100 mg/kg. The control group received the vehicle (sterile water). In Table 7, ‘A’ designates a 50% threshold of ≥8 grams, ‘B’ designates a 50% threshold of ≥6 and <8 grams, and ‘C’ designates a 50% threshold of <6 grams.
The results provided in Table 7 are for oral administration in rats.

Opiate δ2 = Opiate δ2 (Homo sapiens, UniProt P41143); assay: NSAIDS and Opioid Receptor Test: Opiate δ2; format: binding; details: 10 μM
Experimental: (§1) Compounds were screened as DMSO solutions at 10 μM, 100 μM, or 200 μM and values represent percent inhibition of control-specific binding. […] As NSAID and opioid mechanisms of action are precluded, a person of ordinary skill in the art understands that undesirable side effects associated with inhibition of COX receptors in NSAIDs and activation of opiate receptors in opioids can be avoided by compounds described herein. Furthermore, opioids are known to lose their analgesic potency after to continued administration. (See Benyamin, et al. “Opioid Complications and Side Effects” Pain Physician 11 (2008): S105-S120). As the data indicates compounds described herein have a different mechanism action compared to opioids, a person of ordinary skill in the art would appreciate that compounds described herein would not be expected to lose their analgesic potency like opioids after continued admininistration.

Opiate μ = Opiate μ (Homo sapiens, UniProt P35372); assay: NSAIDS and Opioid Receptor Test: Opiate μ; format: binding; details: 10 μM
Experimental: as §1

COX-1 = COX-1 (Homo sapiens, UniProt P23219); assay: NSAIDS and Opioid Receptor Test: COX-1; format: biochemical; details: 200 μM
Experimental: as §1

COX-2 = target: T1, COX-2 (Homo sapiens, UniProt P35354); assay: NSAIDS and Opioid Receptor Test: COX-2; format: biochemical; details: 200 μM
T1 sequence (P35354 18-604): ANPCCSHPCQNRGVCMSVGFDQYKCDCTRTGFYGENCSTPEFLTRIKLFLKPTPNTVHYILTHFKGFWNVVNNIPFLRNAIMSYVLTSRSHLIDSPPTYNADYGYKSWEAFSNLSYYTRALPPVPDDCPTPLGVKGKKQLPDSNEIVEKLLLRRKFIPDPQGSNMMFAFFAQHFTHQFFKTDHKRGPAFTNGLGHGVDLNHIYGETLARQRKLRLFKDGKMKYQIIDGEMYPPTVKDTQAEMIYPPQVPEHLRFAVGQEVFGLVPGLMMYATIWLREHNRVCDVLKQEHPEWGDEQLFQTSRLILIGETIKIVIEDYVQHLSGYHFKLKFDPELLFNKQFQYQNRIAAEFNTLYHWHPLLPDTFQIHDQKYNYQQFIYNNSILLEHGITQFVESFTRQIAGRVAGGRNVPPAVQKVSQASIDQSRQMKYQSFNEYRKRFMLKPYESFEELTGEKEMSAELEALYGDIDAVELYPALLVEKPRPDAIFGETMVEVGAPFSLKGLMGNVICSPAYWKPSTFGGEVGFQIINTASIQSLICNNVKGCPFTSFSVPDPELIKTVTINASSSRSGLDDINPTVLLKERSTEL
Experimental: as §1

Chain of Opiate μ (P35372 whole entry): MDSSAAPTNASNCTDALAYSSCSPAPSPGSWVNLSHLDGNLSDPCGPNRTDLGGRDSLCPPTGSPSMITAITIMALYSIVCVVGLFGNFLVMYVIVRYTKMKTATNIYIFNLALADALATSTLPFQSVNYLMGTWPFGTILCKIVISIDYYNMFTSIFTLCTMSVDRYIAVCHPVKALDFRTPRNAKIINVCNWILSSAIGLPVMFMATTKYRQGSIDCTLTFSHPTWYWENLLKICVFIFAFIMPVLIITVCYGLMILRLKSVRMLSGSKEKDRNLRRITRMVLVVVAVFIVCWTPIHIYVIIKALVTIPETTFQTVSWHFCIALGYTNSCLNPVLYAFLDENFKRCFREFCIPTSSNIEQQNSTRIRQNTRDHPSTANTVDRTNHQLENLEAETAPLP
Chain of Opiate δ2 (P41143 whole entry): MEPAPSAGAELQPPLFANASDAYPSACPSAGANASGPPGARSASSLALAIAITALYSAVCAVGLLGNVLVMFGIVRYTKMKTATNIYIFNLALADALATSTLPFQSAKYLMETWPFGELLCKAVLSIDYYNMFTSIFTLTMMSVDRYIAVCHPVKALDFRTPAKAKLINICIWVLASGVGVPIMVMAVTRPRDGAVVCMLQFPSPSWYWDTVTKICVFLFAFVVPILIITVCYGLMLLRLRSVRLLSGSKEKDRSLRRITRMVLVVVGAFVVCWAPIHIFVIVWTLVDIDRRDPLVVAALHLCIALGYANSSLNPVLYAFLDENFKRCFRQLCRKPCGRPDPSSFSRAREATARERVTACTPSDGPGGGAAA
Chain of COX-1 (P23219 24-599): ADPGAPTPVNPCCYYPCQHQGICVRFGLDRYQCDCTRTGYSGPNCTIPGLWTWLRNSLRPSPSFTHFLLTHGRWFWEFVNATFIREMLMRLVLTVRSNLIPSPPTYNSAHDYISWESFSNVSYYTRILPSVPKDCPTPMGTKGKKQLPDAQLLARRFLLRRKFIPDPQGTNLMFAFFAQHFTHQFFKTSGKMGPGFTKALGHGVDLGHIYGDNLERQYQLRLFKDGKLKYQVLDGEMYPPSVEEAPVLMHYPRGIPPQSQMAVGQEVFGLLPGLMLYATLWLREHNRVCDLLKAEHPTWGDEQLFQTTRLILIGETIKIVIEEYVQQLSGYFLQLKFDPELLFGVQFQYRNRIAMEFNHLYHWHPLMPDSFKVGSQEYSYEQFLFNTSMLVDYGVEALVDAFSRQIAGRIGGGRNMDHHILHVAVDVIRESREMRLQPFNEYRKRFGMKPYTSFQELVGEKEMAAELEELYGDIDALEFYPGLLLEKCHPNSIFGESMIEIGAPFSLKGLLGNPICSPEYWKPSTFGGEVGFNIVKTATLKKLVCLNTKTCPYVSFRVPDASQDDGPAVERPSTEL

Cl.NC12CC(c3nc(C(F)(F)F)cs3)(C1)C2 [Compound 1, 3-(4-(Trifluoromethyl)thiazol-2-yl)bicyclo[1.1.1]pentan-1-amine hydrochloride]
Early Phase, seconds of paw licking (male Sprague-Dawley rats [1]): A (<70 seconds of paw licking) | Late Phase, seconds of paw licking (male Sprague-Dawley rats [1]): B (>70 and <165 seconds of paw licking) | 50% response threshold, 1 h (male Sprague-Dawley rats [2]; 10 mg/kg): C (a 50% threshold of <6 grams) | 50% response threshold, 2 h (male Sprague-Dawley rats [2]; 10 mg/kg): C (a 50% threshold of <6 grams) | 50% response threshold, 4 h (male Sprague-Dawley rats [2]; 10 mg/kg): C (a 50% threshold of <6 grams) | 50% response threshold, 1 h (male Sprague-Dawley rats [2]; 30 mg/kg): B (a 50% threshold of ≥6 and <8 grams) | 50% response threshold, 2 h (male Sprague-Dawley rats [2]; 30 mg/kg): B (a 50% threshold of ≥6 and <8 grams) | 50% response threshold, 4 h (male Sprague-Dawley rats [2]; 30 mg/kg): C (a 50% threshold of <6 grams) | 50% response threshold, 1 h (male Sprague-Dawley rats [2]; 100 mg/kg): A (a 50% threshold of ≥8 grams) | 50% response threshold, 2 h (male Sprague-Dawley rats [2]; 100 mg/kg): A (a 50% threshold of ≥8 grams) | 50% response threshold, 4 h (male Sprague-Dawley rats [2]; 100 mg/kg): A (a 50% threshold of ≥8 grams) | inhibition at 10 µM (Opiate δ2): 7% | inhibition at 10 µM (Opiate μ): 11%

Cc1sc(C23CC(N)(C2)C3)nc1C(F)(F)F.Cl [Compound 2, 3-(5-Methyl-4-(trifluoromethyl)thiazol-2-yl)bicyclo[1.1.1]pentan-1-amine hydrochloride]
Early Phase, seconds of paw licking (male Sprague-Dawley rats [1]): A (<70 seconds of paw licking) | Late Phase, seconds of paw licking (male Sprague-Dawley rats [1]): A (<70 seconds of paw licking) | 50% response threshold, 1 h (male Sprague-Dawley rats [2]; 10 mg/kg): C (a 50% threshold of <6 grams) | 50% response threshold, 2 h (male Sprague-Dawley rats [2]; 10 mg/kg): C (a 50% threshold of <6 grams) | 50% response threshold, 4 h (male Sprague-Dawley rats [2]; 10 mg/kg): C (a 50% threshold of <6 grams) | 50% response threshold, 1 h (male Sprague-Dawley rats [2]; 30 mg/kg): C (a 50% threshold of <6 grams) | 50% response threshold, 2 h (male Sprague-Dawley rats [2]; 30 mg/kg): C (a 50% threshold of <6 grams) | 50% response threshold, 4 h (male Sprague-Dawley rats [2]; 30 mg/kg): C (a 50% threshold of <6 grams) | 50% response threshold, 1 h (male Sprague-Dawley rats [2]; 100 mg/kg): A (a 50% threshold of ≥8 grams) | 50% response threshold, 2 h (male Sprague-Dawley rats [2]; 100 mg/kg): A (a 50% threshold of ≥8 grams) | 50% response threshold, 4 h (male Sprague-Dawley rats [2]; 100 mg/kg): B (a 50% threshold of ≥6 and <8 grams) | inhibition at 200 µM (COX-1): 15% | inhibition at 200 µM (COX-2): -2% | inhibition at 10 µM (Opiate δ2): 10% | inhibition at 10 µM (Opiate μ): 9%
